The text below walks through data of US11319300B2, “Polyfluoro-substituted aromatic heterocyclic derivative, pharmaceutical composition containing same, and applications thereof” (ZHEJIANG UNIVERSITY, priority 2017, dated 2022).

For orientation: IC50 means the midpoint of a concentration-inhibition curve.

The target of one assay is T1, AKT1/PKBα (Homo sapiens, UniProt P31749).
T1 construct: purchased
In words: Akt1 enzyme inhibitory activity, AKT1/PKBα KinEASE FP Fluorescein Green Assay. Format: biochemical. The note with it: fluorescence polarization kit assay; read-out: Akt1 IC50 (grade). Here is the method: (§1) Compound AZD5363 (NCT02208375, NCT02208375, NCT01625286), which have entered the clinical phase II study, was used as a positive control, and the compound was assayed against common tumour cell lines (human ovarian cancer cell line OVCAR-8 and human colon cancer cell line HCT-116) by MTT assay, at the same time, the akt1 enzyme inhibitory activity (IC50) was evaluated using a commercial Akt1 kit.
2) Test method for the inhibitory activity of the compound of the present invention against Akt1 enzyme:
The AKT1/PKBα KinEASE™ FP Fluorescein Green Assay (Kinase Green Fluorescence Detection System) was used to detect the inhibitory activity of the compound on AKT1/PKBα.
Fluorescence polarization detection protein kinase B employs the principle of a competitive reaction: a fluorescently labeled phosphorylated tracer and an unlabeled phosphorylated product produced by the reaction of protein kinase B will compete with the anti-serine antibody for binding. In a reaction mixture […], when a part of the fluorescent tracer binds to the antibody, it causes a higher polarization value. However, in the reaction solution mixture containing the phosphorylated product, less tracer binds to the antibody (the fluorescent tracer was replaced from the antibody) and the emitted signal was depolarized. Therefore, the change in polarization was directly related to the activity of protein kinase B in the reaction.
The compound of the present invention and the positive control AZD5363 were dissolved in dimethyl sulfoxide (DMSO) and diluted to a concentration of 50 μM. At room temperature, 0.25 μl of the compound sample and the positive control at a concentration of 50 μM were taken and added to the 384-well plate, and three parallel wells were set for each sample, and then 10 μl of STK Substrate 3, Working Solution, 5 μl AKT1/PKBα Working Solution, 10 μl ATP Working Solution were added to each sample well plate with vibrating gently and shaking for a few minutes. The reaction starts after 10 μl of ATP Working Solution was added to the well, and the reaction was timed at room temperature for 1 hour. After one hour, 5 μl of STK Stop Mix and 5 μl of STK Antibody Mix were added to each well respectively to stop the reaction. After the addition completes, it was allowed to stand at room temperature for four hours, and the polarization value of the sample was detected by the fluorescence polarization of the microplate reader (it was effective to detect its signal within 24 hours), and the inhibition rate of the compound was calculated by the polarization value, and then IC50 was calculated.
Four sets of controls were set in the experiment, namely Buffer Control Wells, Tracer Control Wells, No Enzyme Wells, and a blank dimethyl sulfoxide control. The resulting data was used to calculate the inhibition rate.
The activity of the compound was divided into three grades according to the size of the IC50 of the Akt inhibitory activity: “+++”, 1 nM<IC50<10 nM; “++”, 10 nM<IC50<50 nM; “+”, 50 nM<IC50.
For orientation: Polarisation of emitted light reports the rotation of a fluorescent probe.

The test system of the next assay is HGC27. In words: Tumour cell proliferation inhibition, MTT assay, HGC27. Format: cell-based, human. (In general: Formazan colour is commonly taken as a measure of viable cells.)
A further assay concerns MCF-7. As to the kind of experiment: Tumour cell proliferation inhibition, MTT assay, MCF-7. In kind it is cell-based, human.
Another assay has as its system 786-O. In words: Tumour cell proliferation inhibition, MTT assay, 786-O. In kind it is cell-based, human.
For a further assay, the system named is HCT-116. In words: Tumour cell proliferation inhibition, MTT assay, HCT-116. In kind it is cell-based, human. The method, then: as §1
1) The pharmacological test method for the tumour cell proliferation inhibiting activity of the compound of the present invention was as follows:
The first was the determination of in vitro tumour growth inhibitory activity and the preliminary structure-activity relationship study, and different solid tumour cell lines were used to determine the in vitro antitumour activity of the synthesized compounds.
Experimental materials: cell lines: human ovarian cancer cells (OVCAR8), colon adenocarcinoma cells (HCT-116),
Medium: OVCAR8: RPMI 1640+fetal calf serum
Drug preparation method: dissolving the drug in DMSO to make a 50 mM of stock solution, and diluting it to a certain ratio to obtain 5 different concentrations.
Tumour Cells being Cultured In Vitro:
The selected tumour cells were incubated in a, 5% of CO2 cell incubator at 37° C., and passaged until the cell density was 70 to 90% (the adherent cells were passaged with Duck's EDTA) and used for subsequent experiments.
The compound was dissolved in dimethyl sulfoxide (DMSO), diluted, and tumour cells were seeded into 4000 cells/200 μL/well in 96-well plates, and 1 μL of compound was added to each well to a final concentration of 50 μM, 10 μM, 2 μM, and 0.4 μM. 0.08 μM were incubated in a, 5% of CO2 cell incubator at 37° C. for 72 hours with DMSO (1%) as a blank control.
The calculation formula of the cell inhibition rate is: cell inhibition rate %=(control group OD value−drug group OD value)/control cell OD value×100%, and the half inhibition concentration (IC50) was determined by the Bliss method.

The next assay concerns CEM-C1. In words: Tumour cell proliferation inhibition, MTT assay, CEM-C1. Format: cell-based, human.

Structures can show the parent of a compound that is named as a salt.

T1 sequence (P31749 whole entry): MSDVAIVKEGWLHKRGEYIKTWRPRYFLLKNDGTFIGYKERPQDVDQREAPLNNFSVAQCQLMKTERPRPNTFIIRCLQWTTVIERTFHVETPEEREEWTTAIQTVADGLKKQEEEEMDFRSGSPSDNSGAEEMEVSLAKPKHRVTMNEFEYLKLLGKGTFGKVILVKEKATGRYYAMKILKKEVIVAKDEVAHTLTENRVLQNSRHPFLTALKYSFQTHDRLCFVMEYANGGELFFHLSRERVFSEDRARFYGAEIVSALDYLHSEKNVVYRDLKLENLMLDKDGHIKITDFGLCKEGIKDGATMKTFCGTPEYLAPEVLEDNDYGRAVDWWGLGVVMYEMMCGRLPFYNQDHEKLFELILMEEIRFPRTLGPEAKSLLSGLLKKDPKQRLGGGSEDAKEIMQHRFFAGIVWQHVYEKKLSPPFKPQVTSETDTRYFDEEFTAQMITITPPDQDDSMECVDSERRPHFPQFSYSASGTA

As to `Cn1nccc1-c1ccc(C(=O)N[C@@H]2CNCC[C@H]2c2ccc(F)c(F)c2)c(F)c1` (racemic) [VII-32], the IC50 was 1 to 10 nM at AKT1/PKBα; 60 nM in the assay with HGC27 (Homo sapiens, HGC-27, 72 h); 1980 nM in the assay with MCF-7 (Homo sapiens, MCF7, 72 h); 910 nM in the assay with 786-O (Homo sapiens, 786-0, 72 h); 980 nM with HCT-116 (Homo sapiens, HCT-116, 72 h); 70 nM with CEM-C1 (Homo sapiens, CEM/C1, 72 h).

As to `Cn1ncc(F)c1-c1ccc(C(=O)N[C@@H]2CNCC[C@H]2c2ccc(F)c(F)c2)c(F)c1` [VII-7], the IC50 is 10 to 50 nM on AKT1/PKBα; 60 nM in the assay with HGC27 (Homo sapiens, HGC-27, 72 h); 2840 nM in the assay on MCF-7 (Homo sapiens, MCF7, 72 h); 990 nM in the assay with 786-O (Homo sapiens, 786-0, 72 h); 2390 nM in the assay on HCT-116 (Homo sapiens, HCT-116, 72 h); 90 nM in the assay with CEM-C1 (Homo sapiens, CEM/C1, 72 h).

As to `Cn1nccc1-c1ccc(C(=O)N[C@@H]2CNCC[C@H]2c2ccc(F)c(F)c2)c(F)c1.O=C(O)C[C@H](O)C(=O)O` [VII-30, L-malate], the IC50 on AKT1/PKBα is 1 to 10 nM; in the assay on HGC27 (72 hours, L-malate), 30 nM; in the assay on MCF-7 (72 hours, L-malate), 1580 nM; with 786-O (Homo sapiens, 786-0, 72 h), 550 nM; in the assay with HCT-116 (72 hours, L-malate), 1990 nM; with CEM-C1 (Homo sapiens, CEM/C1, 72 h), 80 nM.

With `Cn1nccc1-c1ccc(C(=O)N[C@@H]2CNCC[C@H]2c2ccc(F)c(F)c2)c(F)c1` [VII-31, D-malate], the IC50 was 1 to 10 nM on AKT1/PKBα; 10 nM in the assay with HGC27 (72 hours, D-malate); 2960 nM in the assay with MCF-7 (72 hours, D-malate); 650 nM in the assay with 786-O (72 hours, D-malate); 1520 nM in the assay with HCT-116 (72 hours, D-malate); 100 nM in the assay with CEM-C1 (72 hours, D-malate).

As for `Cn1nccc1-c1ccc(C(=O)N[C@@H]2CNCC[C@H]2c2ccc(F)c(F)c2)c(F)c1.O=C(O)C(O)C(O)C(=O)O` [VII-33, L-tartrate], the IC50 is 1 to 10 nM at AKT1/PKBα; 40 nM in the assay on HGC27 (72 hours, L-tartrate); 2250 nM with MCF-7 (72 hours, L-tartrate); 820 nM in the assay on 786-O (72 hours, L-tartrate); 3100 nM in the assay with HCT-116 (72 hours, L-tartrate); 90 nM in the assay with CEM-C1 (72 hours, L-tartrate).

`Cn1nccc1-c1ccc(C(=O)N[C@@H]2CNCC[C@H]2c2ccc(F)c(F)c2)c(F)c1` [VII-34, D-tartrate]: the IC50 on AKT1/PKBα was 1 to 10 nM; in the assay with HGC27 (72 hours, D-tartrate), 30 nM; in the assay on MCF-7 (72 hours, D-tartrate), 3090 nM; with 786-O (72 hours, D-tartrate), 1060 nM; in the assay on HCT-116 (72 hours, D-tartrate), 2150 nM; in the assay on CEM-C1 (72 hours, D-tartrate), 130 nM.

Turning to `Cn1nccc1-c1ccc(C(=O)N[C@@H]2CNCC[C@H]2c2ccc(F)c(F)c2)c(F)c1` [VII-37, citrate], the 50% inhibitory concentration (IC50) on AKT1/PKBα is 1 to 10 nM; with HGC27 (72 hours, citrate), 50 nM; in the assay on MCF-7 (72 hours, citrate), 1360 nM; in the assay with 786-O (72 hours, citrate), 670 nM; in the assay with HCT-116 (72 hours, citrate), 1060 nM; in the assay on CEM-C1 (72 hours, citrate), 110 nM.

Regarding `Cn1nccc1-c1ccc(C(=O)N[C@@H]2CNCC[C@H]2c2ccc(F)c(F)c2)cc1` [drawing 111, reference compound], the IC50 was 10 to 50 nM at AKT1/PKBα; 190 nM in the assay on HGC27 (Homo sapiens, HGC-27, 72 h); 10600 nM in the assay on MCF-7 (Homo sapiens, MCF7, 72 h); 2060 nM in the assay with 786-O (Homo sapiens, 786-0, 72 h); 10500 nM in the assay on HCT-116 (Homo sapiens, HCT-116, 72 h); 620 nM with CEM-C1 (Homo sapiens, CEM/C1, 72 h).

In the case of `Cn1ncc(Cl)c1-c1ccc(C(=O)N[C@@H]2CNCC[C@H]2c2ccc(F)c(F)c2)cc1F` [reference compound], the IC50 on AKT1/PKBα was 10 to 50 nM; in the assay on HGC27 (Homo sapiens, HGC-27, 72 h) it was 120 nM; in the assay with MCF-7 (Homo sapiens, MCF7, 72 h) it was 6320 nM; with 786-O (Homo sapiens, 786-0, 72 h) it was 1280 nM; with HCT-116 (Homo sapiens, HCT-116, 72 h), 5860 nM; with CEM-C1 (Homo sapiens, CEM/C1, 72 h) it was 570 nM.

For the molecule `Cn1ncc(Cl)c1-c1ccc(C(=O)N[C@@H]2CNCC[C@H]2c2ccc(Cl)cc2)c(C(F)(F)F)c1` [reference compound], the 50% inhibitory concentration (IC50) at AKT1/PKBα was 1 to 10 nM; in the assay with HGC27 (Homo sapiens, HGC-27, 72 h), 180 nM; with MCF-7 (Homo sapiens, MCF7, 72 h) it was 5130 nM; with 786-O (Homo sapiens, 786-0, 72 h), 2990 nM; with HCT-116 (Homo sapiens, HCT-116, 72 h), 6150 nM; with CEM-C1 (Homo sapiens, CEM/C1, 72 h), 440 nM.
